Data: the supplement of paper PMC10307832

Columns and labels:
Assay in all cases: relative viability (nuclei count vs DMSO), 5 days (fraction); higher = more cells survive
NCI-H441 = test system: NCI-H441
Procedure, shortened: (§1)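 Five library-drug doses in √10 steps were combined with a fixed anchor-drug dose, or a single drug was given alone, by pin tool to lung cancer cell lines in 1536-well plates the day after seeding. Nuclei were stained and counted after 5 days. Relative viability is the nuclei count in treated wells over that in vehicle wells, taken as the median of duplicate plates.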

PC-3 [JPC-3] = test system: PC-3 [JPC-3]
Procedure, shortened: as §1

LK-2 = test system: LK-2
Procedure, shortened: as §1

EKVX = test system: EKVX
Procedure, shortened: as §1

NCI-H23 = test system: NCI-H23
Procedure, shortened: as §1

NCI-H596 = test system: NCI-H596
Procedure, shortened: as §1

NCI-H1975 = test system: NCI-H1975
Procedure, shortened: as §1

ChaGo-K-1 = test system: ChaGo-K-1
Procedure, shortened: as §1

COR-L 105 = test system: COR-L 105
Procedure, shortened: as §1

HCC-366 = test system: HCC-366
Procedure, shortened: as §1

LOU-NH91 = test system: LOU-NH91
Procedure, shortened: as §1

NCI-H2170 = test system: NCI-H2170
Procedure, shortened: as §1

A-427 = test system: A-427
Procedure, shortened: as §1

EMC-BAC-2 = test system: EMC-BAC-2
Procedure, shortened: as §1

NCI-H1734 = test system: NCI-H1734
Procedure, shortened: as §1

NCI-H520 = test system: NCI-H520
Procedure, shortened: as §1

NCI-H1755 = test system: NCI-H1755
Procedure, shortened: as §1

NCI-H1666 = test system: NCI-H1666
Procedure, shortened: as §1

SK-MES-1 = test system: SK-MES-1
Procedure, shortened: as §1

NCI-H1563 = test system: NCI-H1563
Procedure, shortened: as §1

H3255 = test system: H3255
Procedure, shortened: as §1

`O=c1cc(-c2cccc3c2Sc2ccccc2S3)oc(N2CCOCC2)c1` + CS(=O)(=O)N1CCN(Cc2cc3nc(-c4cccc5[nH]ncc45)nc(N4CCOCC4)c3s2)CC1 [Pictilisib] (partner 1 µM) showed a relative viability (NCI-H441; first compound 0.08 µM) of 0.533, a relative viability (NCI-H441; first compound 0.253 µM) of 0.472 and a relative viability (NCI-H441; first compound 0.8 µM) of 0.513. For the same molecule, the relative viability (NCI-H441; first compound 2.53 µM) was 0.426, the relative viability (NCI-H441; first compound 8 µM) was 0.509 and the relative viability (PC-3 [JPC-3]; first compound 0.08 µM) was 0.694. For the same molecule, the relative viability (PC-3 [JPC-3]; first compound 0.253 µM) was 0.761, the relative viability (PC-3 [JPC-3]; first compound 0.8 µM) was 0.644 and the relative viability (PC-3 [JPC-3]; first compound 2.53 µM) was 0.662. It also gave a relative viability (PC-3 [JPC-3]; first compound 8 µM) of 0.863, a relative viability (LK-2; first compound 0.08 µM) of 0.608 and a relative viability (LK-2; first compound 0.253 µM) of 0.51. It also gave a relative viability (LK-2; first compound 0.8 µM) of 0.708, a relative viability (LK-2; first compound 2.53 µM) of 0.503 and a relative viability (LK-2; first compound 8 µM) of 0.725. The relative viability (EKVX; first compound 0.08 µM) was 0.418, the relative viability (EKVX; first compound 0.253 µM) was 0.521 and the relative viability (EKVX; first compound 0.8 µM) was 0.286. For the same molecule, the relative viability (EKVX; first compound 2.53 µM) was 0.439, the relative viability (EKVX; first compound 8 µM) was 0.47 and the relative viability (NCI-H23; first compound 0.08 µM) was 0.559. It also gave a relative viability (NCI-H23; first compound 0.253 µM) of 0.523, a relative viability (NCI-H23; first compound 0.8 µM) of 0.47 and a relative viability (NCI-H23; first compound 2.53 µM) of 0.4. The relative viability (NCI-H23; first compound 8 µM) was 0.457, the relative viability (NCI-H596; first compound 0.08 µM) was 0.34 and the relative viability (NCI-H596; first compound 0.253 µM) was 0.419. It also gave a relative viability (NCI-H596; first compound 0.8 µM) of 0.357, a relative viability (NCI-H596; first compound 2.53 µM) of 0.371 and a relative viability (NCI-H596; first compound 8 µM) of 0.403. The relative viability (NCI-H1975; first compound 0.08 µM) was 0.276, the relative viability (NCI-H1975; first compound 0.253 µM) was 0.311 and the relative viability (NCI-H1975; first compound 0.8 µM) was 0.236. For the same molecule, the relative viability (NCI-H1975; first compound 2.53 µM) was 0.272, the relative viability (NCI-H1975; first compound 8 µM) was 0.269 and the relative viability (ChaGo-K-1; first compound 0.08 µM) was 0.649. The relative viability (ChaGo-K-1; first compound 0.253 µM) was 0.624, the relative viability (ChaGo-K-1; first compound 0.8 µM) was 0.777 and the relative viability (ChaGo-K-1; first compound 8 µM) was 1.12. It also gave a relative viability (COR-L 105; first compound 0.08 µM) of 0.502, a relative viability (COR-L 105; first compound 0.253 µM) of 0.441 and a relative viability (COR-L 105; first compound 0.8 µM) of 0.362. The relative viability (COR-L 105; first compound 2.53 µM) was 0.338, the relative viability (COR-L 105; first compound 8 µM) was 0.408 and the relative viability (HCC-366; first compound 0.08 µM) was 0.138. The relative viability (HCC-366; first compound 0.253 µM) was 0.129, the relative viability (HCC-366; first compound 0.8 µM) was 0.114 and the relative viability (HCC-366; first compound 2.53 µM) was 0.122. It also gave a relative viability (HCC-366; first compound 8 µM) of 0.158, a relative viability (LOU-NH91; first compound 0.08 µM) of 0.519 and a relative viability (LOU-NH91; first compound 0.253 µM) of 0.542. The relative viability (LOU-NH91; first compound 0.8 µM) was 0.438, the relative viability (LOU-NH91; first compound 2.53 µM) was 0.504 and the relative viability (LOU-NH91; first compound 8 µM) was 0.531. For the same molecule, the relative viability (NCI-H2170; first compound 0.08 µM) was 0.31, the relative viability (NCI-H2170; first compound 0.253 µM) was 0.342 and the relative viability (NCI-H2170; first compound 0.8 µM) was 0.312. For the same molecule, the relative viability (NCI-H2170; first compound 2.53 µM) was 0.287, the relative viability (NCI-H2170; first compound 8 µM) was 0.275 and the relative viability (A-427; first compound 0.08 µM) was 0.818. For the same molecule, the relative viability (A-427; first compound 0.253 µM) was 0.678, the relative viability (A-427; first compound 0.8 µM) was 0.634 and the relative viability (A-427; first compound 2.53 µM) was 0.623. For the same molecule, the relative viability (A-427; first compound 8 µM) was 0.973, the relative viability (EMC-BAC-2; first compound 0.08 µM) was 0.535 and the relative viability (EMC-BAC-2; first compound 0.253 µM) was 0.582. It also gave a relative viability (EMC-BAC-2; first compound 0.8 µM) of 0.58, a relative viability (EMC-BAC-2; first compound 2.53 µM) of 0.548 and a relative viability (EMC-BAC-2; first compound 8 µM) of 0.538. For the same molecule, the relative viability (NCI-H1734; first compound 0.08 µM) was 0.443, the relative viability (NCI-H1734; first compound 0.253 µM) was 0.564 and the relative viability (NCI-H1734; first compound 0.8 µM) was 0.465. For the same molecule, the relative viability (NCI-H1734; first compound 2.53 µM) was 0.351, the relative viability (NCI-H1734; first compound 8 µM) was 0.578 and the relative viability (NCI-H520; first compound 0.08 µM) was 0.308. The relative viability (NCI-H520; first compound 0.253 µM) was 0.354, the relative viability (NCI-H520; first compound 0.8 µM) was 0.306 and the relative viability (NCI-H520; first compound 2.53 µM) was 0.273. For the same molecule, the relative viability (NCI-H520; first compound 8 µM) was 0.374, the relative viability (NCI-H1755; first compound 0.08 µM) was 0.369 and the relative viability (NCI-H1755; first compound 0.253 µM) was 0.489. The relative viability (NCI-H1755; first compound 0.8 µM) was 0.481, the relative viability (NCI-H1755; first compound 2.53 µM) was 0.431 and the relative viability (NCI-H1755; first compound 8 µM) was 0.444. It also gave a relative viability (NCI-H1666; first compound 0.08 µM) of 0.404, a relative viability (NCI-H1666; first compound 0.253 µM) of 0.416 and a relative viability (NCI-H1666; first compound 0.8 µM) of 0.323. The relative viability (NCI-H1666; first compound 2.53 µM) was 0.411, the relative viability (NCI-H1666; first compound 8 µM) was 0.396 and the relative viability (SK-MES-1; first compound 0.08 µM) was 0.373. It also gave a relative viability (SK-MES-1; first compound 0.253 µM) of 0.396, a relative viability (SK-MES-1; first compound 0.8 µM) of 0.338 and a relative viability (SK-MES-1; first compound 2.53 µM) of 0.407. The relative viability (SK-MES-1; first compound 8 µM) was 0.474, the relative viability (NCI-H1563; first compound 0.08 µM) was 0.649 and the relative viability (NCI-H1563; first compound 0.253 µM) was 0.64. It also gave a relative viability (NCI-H1563; first compound 0.8 µM) of 0.633, a relative viability (NCI-H1563; first compound 2.53 µM) of 0.738 and a relative viability (NCI-H1563; first compound 8 µM) of 0.661. The relative viability (H3255; first compound 0.08 µM) was 0.408, the relative viability (H3255; first compound 0.253 µM) was 0.463 and the relative viability (H3255; first compound 0.8 µM) was 0.427. For the same molecule, the relative viability (H3255; first compound 2.53 µM) was 0.402 and the relative viability (H3255; first compound 8 µM) was 0.513.
